Reference: patent US9125388B2, “Biological control” (Isis Innovation Limited, priority 1999, dated 2015)

What was measured:
[1] = system: Yp3 tTa, tRe Msl-1^Mpu on the 2nd chromosome; test: Recombinant chromosome experiments: parents raised on supplement, progeny on normal food, adults by sex (25, 18 or 29° C.); assay type: in vivo, Drosophila melanogaster
Protocol: (§1) 40-45 young females and 20-25 young males raised at 25° C. upon food with the indicated tetracycline supplement were allowed to mate, then transferred to normal (tetracycline-free) food after 3-4 days. These flies were transferred to fresh vials of normal food every day for 12 days, then removed on the 13th day. All the vials were incubated at 25° C. while the progeny developed. The numbers of male and female progeny emerging as adults in each vial were recorded.
Since there is no meiotic recombination in Drosophila melanogaster males, any of these recombinant chromosomes could be used in a genetic sexing or insect control program, if required.
(§2) A standard range of additive concentrations were used in the following experiments (0.05-20 μg/ml). […] (=“not done”)
(§3) All the preceding experiments were performed at 25° C., the standard temperature for Drosophila culture. However, the insects in the wild would clearly be exposed to varying temperatures, so we investigated the extent to which the efficiency of the system is affected by temperature. As with the recombinant chromosome experiments, 40-45 young virgin females and 20-25 young males raised at 25° C. upon food with the indicated tetracycline supplement were allowed to mate, then transferred to normal (tetracycline-free) food after 3-4 days. These flies were transferred to fresh vials of normal food every day. The numbers of male and female progeny emerging as adults in each vial were recorded. These experiments were performed at either 18° C. or 29° C.

[2] = system: Yp3 tTa, tRe Ras64B^V12 on the 2nd chromosome; test: Recombinant chromosome experiments / maternal transmission of Tc (Table 1): parents raised on supplement, progeny on normal food, adults by sex; assay type: in vivo, Drosophila melanogaster; conditions: for ♀ progeny emerging as adults / ♂ progeny emerging as adults: 25° C.
Protocol: as §1, §2, §3
We used a strain of Drosophila in which females, but not males, require Tc for viability.
A strain homozygous for second chromosome insertions of both Yp3-tTA and tRe-Ras64B^V12 was tested for the effect of parental dietary Tc. 40-45 young females and 20-25 young males raised at 25° C. upon food with the indicated tetracycline supplement were allowed to mate, then transferred to normal (tetracycline-free) food after 3-4 days. These flies were transferred to fresh vials of normal food every day for 12 days, and then removed on the 13th day. All the vials were incubated at 25° C. while the progeny developed. The total numbers of male and female progeny emerging as adults were recorded.

[3] = parents raised on tetracycline 0.1 μg/ml, 18° C.
[4] = parents raised on tetracycline 0.1 μg/ml, 29° C.
[5] = parents raised on tetracycline 1 μg/ml, 18° C.
[6] = parents raised on tetracycline 1 μg/ml, 29° C.
[7] = parents raised on tetracycline 5 μg/ml, 18° C.
[8] = parents raised on tetracycline 5 μg/ml, 29° C.
[9] = parents raised on Tc 0.1 μg/ml, Day 8 on normal food
[10] = parents raised on Tc 0.1 μg/ml, Day 9 on normal food
[11] = parents raised on Tc 0.1 μg/ml, Day 10 on normal food
[12] = parents raised on Tc 0.1 μg/ml, Day 11 on normal food
[13] = parents raised on Tc 0.1 μg/ml, Day 12 on normal food
[14] = parents raised on Tc 0.1 μg/ml, Total of Days 1-12 on normal food
[15] = parents raised on Tc 1 μg/ml, Day 8 on normal food
[16] = parents raised on Tc 1 μg/ml, Day 9 on normal food
[17] = parents raised on Tc 1 μg/ml, Day 10 on normal food
[18] = parents raised on Tc 1 μg/ml, Day 11 on normal food
[19] = parents raised on Tc 1 μg/ml, Day 12 on normal food
[20] = parents raised on Tc 1 μg/ml, Total of Days 1-12 on normal food
[21] = parents raised on Tc 5 μg/ml, Day 8 on normal food
[22] = parents raised on Tc 5 μg/ml, Total of Days 1-12 on normal food
[23] = parents raised on Tc 20 μg/ml, Day 1 on normal food
[24] = parents raised on Tc 20 μg/ml, Day 2 on normal food
[25] = parents raised on Tc 20 μg/ml, Day 3 on normal food
[26] = parents raised on Tc 20 μg/ml, Day 4 on normal food
[27] = parents raised on Tc 20 μg/ml, Day 5 on normal food
[28] = parents raised on Tc 20 μg/ml, Day 6 on normal food
[29] = parents raised on Tc 20 μg/ml, Day 7 on normal food
[30] = parents raised on Tc 100 μg/ml, Day 1 on normal food
[31] = parents raised on Tc 100 μg/ml, Day 2 on normal food
[32] = parents raised on Tc 100 μg/ml, Day 3 on normal food
[33] = parents raised on Tc 100 μg/ml, Day 4 on normal food
[34] = parents raised on Tc 100 μg/ml, Day 5 on normal food
[35] = parents raised on Tc 100 μg/ml, Day 6 on normal food
[36] = parents raised on Tc 100 μg/ml, Day 7 on normal food
[37] = parents raised on Tc 500 μg/ml, Day 1 on normal food
[38] = parents raised on Tc 500 μg/ml, Day 2 on normal food
[39] = parents raised on Tc 500 μg/ml, Day 3 on normal food
[40] = parents raised on Tc 500 μg/ml, Day 4 on normal food
[41] = parents raised on Tc 500 μg/ml, Day 5 on normal food
[42] = parents raised on Tc 500 μg/ml, Day 6 on normal food
[43] = parents raised on Tc 500 μg/ml, Day 7 on normal food
[44] = parents raised on Tc 1000 μg/ml, Day 1 on normal food
[45] = parents raised on Tc 1000 μg/ml, Day 2 on normal food
[46] = parents raised on Tc 1000 μg/ml, Day 3 on normal food
[47] = parents raised on Tc 1000 μg/ml, Day 4 on normal food
[48] = parents raised on Tc 1000 μg/ml, Day 5 on normal food
[49] = parents raised on Tc 1000 μg/ml, Day 6 on normal food
[50] = parents raised on Tc 1000 μg/ml, Day 7 on normal food
[51] = parents raised on Tc 2000 μg/ml, Day 1 on normal food
[52] = parents raised on Tc 2000 μg/ml, Day 2 on normal food
[53] = parents raised on Tc 2000 μg/ml, Day 3 on normal food
[54] = parents raised on Tc 2000 μg/ml, Day 4 on normal food
[55] = parents raised on Tc 2000 μg/ml, Day 5 on normal food
[56] = parents raised on Tc 2000 μg/ml, Day 6 on normal food
[57] = parents raised on Tc 2000 μg/ml, Day 7 on normal food

SMILES: CN(C)[C@@H]1C(O)=C(C(N)=O)C(=O)[C@@]2(O)C(O)=C3C(=O)c4c(O)cccc4[C@@](C)(O)[C@H]3C[C@@H]12 [Tetracycline, tetracycline]
- escapers ([1]; even at low (parental) tetracycline concentrations): < 1%
- Female progeny emerging as adults [1, 3]: 5
- Male progeny emerging as adults [1, 3]: 1303
- Female progeny emerging as adults [1, 4]: 0
- Male progeny emerging as adults [1, 4]: 799
- Female progeny emerging as adults [1, 5]: 14
- Male progeny emerging as adults [1, 5]: 1218
- Female progeny emerging as adults [1, 6]: 0
- Male progeny emerging as adults [1, 6]: 749
- Female progeny emerging as adults [1, 7]: 7
- Male progeny emerging as adults [1, 7]: 1386
- Female progeny emerging as adults [1, 8]: 0
- Male progeny emerging as adults [1, 8]: 744
- ♀ progeny emerging as adults [2, 9]: 0
- ♂ progeny emerging as adults [2, 9]: 105
- ♀ progeny emerging as adults [2, 10]: 0
- ♂ progeny emerging as adults [2, 10]: 133
- ♀ progeny emerging as adults [2, 11]: 0
- ♂ progeny emerging as adults [2, 11]: 93
- ♀ progeny emerging as adults [2, 12]: 0
- ♂ progeny emerging as adults [2, 12]: 131
- ♀ progeny emerging as adults [2, 13]: 0
- ♂ progeny emerging as adults [2, 13]: 121
- ♀ progeny emerging as adults [2, 14]: 0
- ♂ progeny emerging as adults [2, 14]: 1363
- ♀ progeny emerging as adults [2, 15]: 0
- ♂ progeny emerging as adults [2, 15]: 90
- ♀ progeny emerging as adults [2, 16]: 0
- ♂ progeny emerging as adults [2, 16]: 119
- ♀ progeny emerging as adults [2, 17]: 0
- ♂ progeny emerging as adults [2, 17]: 94
- ♀ progeny emerging as adults [2, 18]: 0
- ♂ progeny emerging as adults [2, 18]: 98
- ♀ progeny emerging as adults [2, 19]: 0
- ♂ progeny emerging as adults [2, 19]: 100
- ♀ progeny emerging as adults [2, 20]: 0
- ♂ progeny emerging as adults [2, 20]: 1360
- ♀ progeny emerging as adults [2, 21]: 0
- ♂ progeny emerging as adults [2, 21]: 119
- ♂ progeny emerging as adults ([2]; parents raised on Tc 5 μg/ml, Day 9 on normal food): 96
- ♀ progeny emerging as adults ([2]; parents raised on Tc 5 μg/ml, Day 12 on normal food): 0
- ♀ progeny emerging as adults [2, 22]: 0
- ♂ progeny emerging as adults [2, 22]: 1384
- ♀ progeny emerging as adults [2, 23]: 0
- ♂ progeny emerging as adults [2, 23]: 89
- ♀ progeny emerging as adults [2, 24]: 0
- ♂ progeny emerging as adults [2, 24]: 107
- ♀ progeny emerging as adults [2, 25]: 0
- ♂ progeny emerging as adults [2, 25]: 107
- ♀ progeny emerging as adults [2, 26]: 0
- ♂ progeny emerging as adults [2, 26]: 98
- ♀ progeny emerging as adults [2, 27]: 0
- ♂ progeny emerging as adults [2, 27]: 88
- ♀ progeny emerging as adults [2, 28]: 0
- ♂ progeny emerging as adults [2, 28]: 102
- ♀ progeny emerging as adults [2, 29]: 0
- ♂ progeny emerging as adults [2, 29]: 107
- ♀ progeny emerging as adults [2, 30]: 0
- ♂ progeny emerging as adults [2, 30]: 129
- ♀ progeny emerging as adults [2, 31]: 0
- ♂ progeny emerging as adults [2, 31]: 136
- ♀ progeny emerging as adults [2, 32]: 0
- ♂ progeny emerging as adults [2, 32]: 128
- ♀ progeny emerging as adults [2, 33]: 0
- ♂ progeny emerging as adults [2, 33]: 127
- ♀ progeny emerging as adults [2, 34]: 0
- ♂ progeny emerging as adults [2, 34]: 135
- ♀ progeny emerging as adults [2, 35]: 0
- ♂ progeny emerging as adults [2, 35]: 144
- ♀ progeny emerging as adults [2, 36]: 0
- ♂ progeny emerging as adults [2, 36]: 107
- ♀ progeny emerging as adults [2, 37]: 2
- ♂ progeny emerging as adults [2, 37]: 136
- ♀ progeny emerging as adults [2, 38]: 0
- ♂ progeny emerging as adults [2, 38]: 88
- ♀ progeny emerging as adults [2, 39]: 0
- ♂ progeny emerging as adults [2, 39]: 113
- ♀ progeny emerging as adults [2, 40]: 0
- ♂ progeny emerging as adults [2, 40]: 113
- ♀ progeny emerging as adults [2, 41]: 0
- ♂ progeny emerging as adults [2, 41]: 87
- ♀ progeny emerging as adults [2, 42]: 0
- ♂ progeny emerging as adults [2, 42]: 94
- ♀ progeny emerging as adults [2, 43]: 0
- ♂ progeny emerging as adults [2, 43]: 109
- ♀ progeny emerging as adults [2, 44]: 13
- ♂ progeny emerging as adults [2, 44]: 107
- ♀ progeny emerging as adults [2, 45]: 5
- ♂ progeny emerging as adults [2, 45]: 140
- ♀ progeny emerging as adults [2, 46]: 0
- ♂ progeny emerging as adults [2, 46]: 110
- ♀ progeny emerging as adults [2, 47]: 0
- ♂ progeny emerging as adults [2, 47]: 141
- ♀ progeny emerging as adults [2, 48]: 0
- ♂ progeny emerging as adults [2, 48]: 98
- ♀ progeny emerging as adults [2, 49]: 0
- ♂ progeny emerging as adults [2, 49]: 129
- ♀ progeny emerging as adults [2, 50]: 0
- ♂ progeny emerging as adults [2, 50]: 88
- ♀ progeny emerging as adults [2, 51]: 32
- ♂ progeny emerging as adults [2, 51]: 119
- ♀ progeny emerging as adults [2, 52]: 15
- ♂ progeny emerging as adults [2, 52]: 102
- ♀ progeny emerging as adults [2, 53]: 12
- ♂ progeny emerging as adults [2, 53]: 107
- ♀ progeny emerging as adults [2, 54]: 9
- ♂ progeny emerging as adults [2, 54]: 109
- ♀ progeny emerging as adults [2, 55]: 8
- ♂ progeny emerging as adults [2, 55]: 109
- ♀ progeny emerging as adults [2, 56]: 2
- ♂ progeny emerging as adults [2, 56]: 140
- ♀ progeny emerging as adults [2, 57]: 0
- ♂ progeny emerging as adults [2, 57]: 127
- Female progeny emerging as adults [2, 3]: 2
- Male progeny emerging as adults [2, 3]: 1190
- Female progeny emerging as adults [2, 4]: 0
- Male progeny emerging as adults [2, 4]: 718
- Female progeny emerging as adults [2, 5]: 4
- Male progeny emerging as adults [2, 5]: 1213
- Female progeny emerging as adults [2, 6]: 0
- Male progeny emerging as adults [2, 6]: 753
- Female progeny emerging as adults [2, 7]: 0
- Male progeny emerging as adults [2, 7]: 1058
- Female progeny emerging as adults [2, 8]: 0
- Male progeny emerging as adults [2, 8]: 757
- parental food concentration leading to survival of a small proportion of female progeny ([2]; progeny on media lacking Tc): ≥ 500 µg/mL
- food concentration sufficient to suppress expression of the toxic gene, allowing both males and females to survive ([2]; strain grown on supplemented food): 0.1 µg/mL
